Laboratory results taken from US10544130B2, “Metallo-beta-lactamase inhibitors” (priority 2015, dated 2020).

System: Pseudomonas aeruginosa PAO1 MB9798 (efflux+, IMP-1)
Conditions: ratio MITC95 PA 9798/MITC95 PA 9799; imipenem at 2 μg/mL
Outline: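 Isogenic PAO1 pair (efflux+ MB9798, efflux− MB9799, both IMP-1) tested by microbroth MIC with fixed imipenem and/or ceftazidime, usually at CLSI breakpoint, plus fixed class A/C inhibitor against AmpC. MBL inhibitor titrated; concentration restoring susceptibility recorded and fold difference between strains taken as efflux extent.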

Row | SMILES | Efflux ratio
1 | NC[C@@H](O)CNS(=O)(=O)c1ccc(-c2cccc3[nH]c(N)nc23)c(-c2nn[nH]n2)c1S(N)(=O)=O [Example 298, (R)-4-(2-amino-1H-benzo[d]imidazol-4-yl)-N1-(3-amino-2-hydroxypropyl)-3-(2H-tetrazol-5-yl)-benzene-1,2-disulfonamide] | 0.69
2 | NC[C@H](N)CNS(=O)(=O)c1ccc(-c2cnccc2N)c(-c2nn[nH]n2)c1S(N)(=O)=O [Example 223, (S)-4-(4-aminopyridin-3-yl)-N1-(2,3-diaminopropyl)-3-(2H-tetrazol-5-yl)benzene-1,2-disulfonamide] | 2.00
3 | NCCNS(=O)(=O)c1ccc(-c2cccc(C(=O)NC[C@@H](N)CO)c2N)c(-c2nn[nH]n2)c1S(N)(=O)=O [Example 332, (R)-2-amino-N-(2-amino-3-hydroxypropyl)-4′-(N-(2-aminoethyl)sulfamoyl)-3′-sulfamoyl-2′-(2H-tetrazol-5-yl)-[1,1′-biphenyl]-3-carboxamide] | 1.00
4 | NCCNS(=O)(=O)c1ccc(-c2cccc(-c3n[nH]c(N)n3)c2)c(-c2nn[nH]n2)c1S(N)(=O)=O [Example 228, 3′-(5-amino-1H-1,2,4-triazol-3-yl)-N4-(2-aminoethyl)-2-(2H-tetrazol-5-yl)-[1,1′-biphenyl]-3,4-disulfonamide] | 1.00
5 | NC[C@@H](O)CNS(=O)(=O)c1ccc(-c2ccc(N)nc2)c(-c2nn[nH]n2)c1S(N)(=O)=O [Example 303, (R)-N1-(3-amino-2-hydroxypropyl)-4-(6-aminopyridin-3-yl)-3-(2H-tetrazol-5-yl)benzene-1,2-disulfonamide] | 1.00
6 | CN(C)CCNS(=O)(=O)c1ccc(-c2cccc3sc(N)nc23)c(-c2nnn[nH]2)c1S(N)(=O)=O [Example 22, 4-(2-amino-1,3-benzothiazol-4-yl)-N^1-[2-(dimethylamino)ethyl]-3-(1H-tetrazol-5-yl)benzene-1,2-disulfonamide] | 1.00
7 | NC1CCC(c2ccc(S(N)(=O)=O)c(S(N)(=O)=O)c2-c2nnn[nH]2)CC1 (stereo not drawn) [Example 165, 4-(4-aminocyclohexyl)-3-(1H-tetrazol-5-yl)benzene-1,2-disulfonamide] | 4.00
8 | Nc1nc2c(-c3ccc(S(=O)(=O)N[C@H]4CN[C@H](CO)C4)c(S(N)(=O)=O)c3-c3nnn[nH]3)cccc2s1 [Example 78, 4-(2-amino-1,3-benzothiazol-4-yl)-N1-[(3R,5S)-5-(hydroxymethyl)pyrrolidin-3-yl]-3-(1H-tetrazol-5-yl)benzene-1,2-disulfonamide] | 0.50
9 | NCc1nc2c(-c3ccc(S(=O)(=O)NC[C@@H](O)CN)c(S(N)(=O)=O)c3-c3nn[nH]n3)cccc2[nH]1 [Example 305, (S)—N1-(3-amino-2-hydroxypropyl)-4-(2-(aminomethyl)-1H-benzo[d]imidazole-4-yl)-3-(2H-tetrazol-5-yl)benzene-1,2-disulfonamide] | 1.00
10 | Nc1nc2c(-c3ccc(S(=O)(=O)N[C@H]4CN[C@@H](C(=O)O)C4)c(S(N)(=O)=O)c3-c3nnn[nH]3)cccc2s1 [Example 82, (4R)-4-({[4-(2-amino-1,3-benzothiazol-4-yl)-2-sulfamoyl-3-(1H-tetrazol-5-yl)phenyl]sulfonyl}amino)-D-proline] | 0.50
11 | NCCCNS(=O)(=O)c1ccc(-c2cccc3[nH]cnc23)c(-c2nn[nH]n2)c1S(N)(=O)=O [Example 198, N^1-(3-aminopropyl)-4-(1H-benzo[d]imidazol-4-yl)-3-(2H-tetrazol-5-yl)benzene-1,2-disulfonamide] | 1.00
12 | Nc1nc2c(-c3ccc(S(=O)(=O)N4CCC[C@H](N)C4)c(S(N)(=O)=O)c3-c3nnn[nH]3)cccc2s1 [Example 66, 3-(2-amino-1,3-benzothiazol-4-yl)-6-{[(3S)-3-aminopiperidin-1-yl]sulfonyl}-2-(1H-tetrazol-5-yl)benzenesulfonamide] | 2.00
